Tests used:
[1] = test system: EGFR phosphorylation (pY1068) in H3255GR (LRTM) cells; experiment: Western blot; assay type: cell-based, human; settings: 6 h
Method: (§1) H1975, H3255, H3255GR and HCC827 lung adenocarcinoma cells (obtained from Dr. Pasi Jänne in Dana-Farber Cancer Institute, 2022) were cultured in RPMI 1640 media (Corning, 1004-CV) supplemented with 10% FBS (Tissue Culture Biologicals, 35-010-CV) and 1% penicillin-streptomycin (P/S, Corning, 30-002-CI). All cell lines were tested negative for Mycoplasma using Myco-Sniff-Rapid™ Mycoplasma Luciferase Detection Kit Plus PCR Primer Set (MP biomedicals, 0930504-CF) and were passaged and/or used for no longer than 4 weeks for all experiments H1975 and HCC-827 cells were seeded in 6-well plates with 400,000 cells per well and incubated overnight. H3255 and H3255GR cells were seeded in 12-well plates with 200,000 cells per well and were grown to confluency after 48 h. Culture medium was removed, cells washed with PBS, and lysed with lysis buffer containing 5 M NaCl, 1 M TRIS pH 8.0, 10% SDS, 10% Triton X-100 and a tablet of protease and phosphatase inhibitor. Protein lysate concentration was analyzed using Pierce BCA kit (ThermoFisher, 23225). Protein samples (10 µg) were resolved on hand-cast Criterion Tris-HCl protein gels. Primary antibodies used; phospho-EGFR (Tyr1068; #2234, 1:1,000), EGFR (#4267; 1:1,000), phospho-AKT (Ser473; #4060, 1:1,000), AKT (#9272, 1:1,000), phospho-ERK1/2 (Thr202/Tyr204; #4370, 1:1,000), and ERK1/2 (#4695, 1:1,000) antibodies; were purchased from Cell Signaling Technology. Secondary Goat anti-rabbit IgG starbright blue 700 (Biorad, 64484700) and Anti-tubulin hFAB Rhodamine Tubulin (Bio-Rad, 64512248). Western blots were visualized with the ChemiDoc MP imager (Bio-Rad) utilizing the Image Lab Touch Software (version 2.4.0.03). All Western blot images are representatives of at least 3 independent replicate experiments.

[2] = test system: EGFR phosphorylation (pY1068) in HCC827 (exon19 delE746-A750) cells; experiment: Western blot; assay type: cell-based, human; settings: HCC827, 6 h
Method: as §1

[3] = test system: EGFR phosphorylation (pY1068) in H3255 (LR) cells; experiment: Western blot; assay type: cell-based, human; settings: H3255, 6 h
Method: as §1

MARK2 = target: T1, MARK2 (Homo sapiens, UniProt Q7KZI7); experiment: KINOMEscan; assay type: binding; settings: 1 μM
T1 construct: purchased Eurofins DiscoverX Corporation
T1 sequence (Q7KZI7 whole entry): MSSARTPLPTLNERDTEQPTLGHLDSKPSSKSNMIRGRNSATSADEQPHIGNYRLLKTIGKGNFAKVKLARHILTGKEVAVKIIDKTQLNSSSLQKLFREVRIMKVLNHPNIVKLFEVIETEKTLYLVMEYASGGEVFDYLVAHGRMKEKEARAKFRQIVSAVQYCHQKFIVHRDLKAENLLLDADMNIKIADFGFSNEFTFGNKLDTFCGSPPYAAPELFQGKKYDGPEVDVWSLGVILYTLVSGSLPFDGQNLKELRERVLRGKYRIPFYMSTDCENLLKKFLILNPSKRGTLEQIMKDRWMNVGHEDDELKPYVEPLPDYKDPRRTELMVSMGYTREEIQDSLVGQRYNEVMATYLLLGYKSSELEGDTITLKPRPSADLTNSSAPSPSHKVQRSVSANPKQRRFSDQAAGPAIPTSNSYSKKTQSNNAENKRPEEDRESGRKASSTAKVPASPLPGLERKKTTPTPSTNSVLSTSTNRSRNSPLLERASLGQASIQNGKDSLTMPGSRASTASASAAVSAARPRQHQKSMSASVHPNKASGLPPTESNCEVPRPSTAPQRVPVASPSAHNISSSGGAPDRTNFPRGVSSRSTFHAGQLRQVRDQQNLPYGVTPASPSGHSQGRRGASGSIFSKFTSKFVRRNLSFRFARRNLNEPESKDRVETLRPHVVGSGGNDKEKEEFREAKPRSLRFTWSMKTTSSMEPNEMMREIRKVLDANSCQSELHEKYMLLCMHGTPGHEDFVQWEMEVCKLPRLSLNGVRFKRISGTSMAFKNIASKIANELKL

SRPK1 = SRPK1 (Homo sapiens, UniProt Q96SB4); experiment: KINOMEscan; assay type: binding; settings: 1 μM
SRPK1, sequence (Q96SB4 whole entry): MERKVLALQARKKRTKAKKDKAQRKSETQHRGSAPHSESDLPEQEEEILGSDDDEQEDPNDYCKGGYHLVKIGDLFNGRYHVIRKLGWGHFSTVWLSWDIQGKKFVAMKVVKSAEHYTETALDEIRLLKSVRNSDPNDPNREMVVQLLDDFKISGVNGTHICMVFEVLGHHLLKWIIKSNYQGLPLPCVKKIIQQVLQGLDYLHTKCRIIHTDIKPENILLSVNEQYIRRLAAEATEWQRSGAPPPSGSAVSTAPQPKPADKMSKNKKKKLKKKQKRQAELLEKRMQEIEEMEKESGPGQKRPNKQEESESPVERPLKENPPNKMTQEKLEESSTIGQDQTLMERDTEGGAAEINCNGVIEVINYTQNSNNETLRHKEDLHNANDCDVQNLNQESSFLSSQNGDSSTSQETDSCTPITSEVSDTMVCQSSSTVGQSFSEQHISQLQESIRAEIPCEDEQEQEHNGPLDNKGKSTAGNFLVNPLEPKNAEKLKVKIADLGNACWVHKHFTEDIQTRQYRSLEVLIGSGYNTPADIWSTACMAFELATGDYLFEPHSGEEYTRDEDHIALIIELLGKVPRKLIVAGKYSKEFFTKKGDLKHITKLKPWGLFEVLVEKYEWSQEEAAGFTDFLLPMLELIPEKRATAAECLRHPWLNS

CLK1 = CLK1 (Homo sapiens, UniProt P49759); experiment: KINOMEscan; assay type: binding; settings: 1 μM
EPHA7 = EPHA7 (Homo sapiens, UniProt Q15375); experiment: KINOMEscan; assay type: binding; settings: 1 μM
CDK5 = CDK5 (Homo sapiens, UniProt Q00535); experiment: KINOMEscan; assay type: binding; settings: 1 μM
CDK5, sequence (Q00535 whole entry): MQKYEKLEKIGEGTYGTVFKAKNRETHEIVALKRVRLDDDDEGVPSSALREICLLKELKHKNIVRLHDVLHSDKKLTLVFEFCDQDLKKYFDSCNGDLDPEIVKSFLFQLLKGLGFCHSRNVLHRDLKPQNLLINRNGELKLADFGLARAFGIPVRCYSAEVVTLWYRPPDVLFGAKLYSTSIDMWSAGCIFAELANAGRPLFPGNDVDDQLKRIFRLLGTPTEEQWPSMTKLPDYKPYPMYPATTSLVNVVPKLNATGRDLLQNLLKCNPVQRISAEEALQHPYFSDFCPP

AKT3 = AKT3 (Homo sapiens, UniProt Q9Y243); experiment: KINOMEscan; assay type: binding; settings: 1 μM
RIPK5 = RIPK5 (Homo sapiens, UniProt Q6XUX3); experiment: KINOMEscan; assay type: binding; settings: 1 μM
BLK = BLK (Homo sapiens, UniProt P51451); experiment: KINOMEscan; assay type: binding; settings: 1 μM
PRKD1 = PRKD1 (Homo sapiens, UniProt Q15139); experiment: KINOMEscan; assay type: binding; settings: 1 μM
PRKD1, sequence (Q15139 whole entry): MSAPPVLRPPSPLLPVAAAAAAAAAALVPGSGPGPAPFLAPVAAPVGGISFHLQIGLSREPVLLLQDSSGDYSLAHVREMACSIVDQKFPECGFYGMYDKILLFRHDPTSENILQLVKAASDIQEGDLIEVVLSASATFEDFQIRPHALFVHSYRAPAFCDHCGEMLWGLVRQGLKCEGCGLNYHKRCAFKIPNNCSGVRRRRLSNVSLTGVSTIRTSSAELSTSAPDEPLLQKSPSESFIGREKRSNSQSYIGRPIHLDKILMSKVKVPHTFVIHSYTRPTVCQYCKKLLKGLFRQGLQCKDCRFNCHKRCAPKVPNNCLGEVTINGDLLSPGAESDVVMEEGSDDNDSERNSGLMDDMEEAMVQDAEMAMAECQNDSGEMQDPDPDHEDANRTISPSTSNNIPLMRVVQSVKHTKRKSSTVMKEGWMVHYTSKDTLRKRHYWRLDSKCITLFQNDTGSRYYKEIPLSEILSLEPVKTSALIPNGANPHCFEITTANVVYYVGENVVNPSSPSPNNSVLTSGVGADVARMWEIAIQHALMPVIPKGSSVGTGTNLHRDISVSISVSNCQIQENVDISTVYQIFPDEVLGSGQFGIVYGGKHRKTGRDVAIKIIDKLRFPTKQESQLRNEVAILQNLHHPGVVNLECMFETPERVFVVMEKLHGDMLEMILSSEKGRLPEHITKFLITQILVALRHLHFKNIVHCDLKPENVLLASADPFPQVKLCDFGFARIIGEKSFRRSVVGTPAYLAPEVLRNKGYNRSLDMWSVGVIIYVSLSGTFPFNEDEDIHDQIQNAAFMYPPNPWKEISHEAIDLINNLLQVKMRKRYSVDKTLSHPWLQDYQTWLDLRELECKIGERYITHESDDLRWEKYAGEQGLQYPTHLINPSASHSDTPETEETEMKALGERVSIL

AMPK-alpha1 = AMPK-alpha1 (Homo sapiens, UniProt Q13131); experiment: KINOMEscan; assay type: binding; settings: 1 μM
LZK = target: T2, LZK (Homo sapiens, UniProt O43283); experiment: KINOMEscan; assay type: binding; settings: 1 μM
T2 construct: purchased Eurofins DiscoverX Corporation

ROCK1 = ROCK1 (Homo sapiens, UniProt Q13464); experiment: KINOMEscan; assay type: binding; settings: 1 μM
ROCK1, sequence (Q13464 whole entry): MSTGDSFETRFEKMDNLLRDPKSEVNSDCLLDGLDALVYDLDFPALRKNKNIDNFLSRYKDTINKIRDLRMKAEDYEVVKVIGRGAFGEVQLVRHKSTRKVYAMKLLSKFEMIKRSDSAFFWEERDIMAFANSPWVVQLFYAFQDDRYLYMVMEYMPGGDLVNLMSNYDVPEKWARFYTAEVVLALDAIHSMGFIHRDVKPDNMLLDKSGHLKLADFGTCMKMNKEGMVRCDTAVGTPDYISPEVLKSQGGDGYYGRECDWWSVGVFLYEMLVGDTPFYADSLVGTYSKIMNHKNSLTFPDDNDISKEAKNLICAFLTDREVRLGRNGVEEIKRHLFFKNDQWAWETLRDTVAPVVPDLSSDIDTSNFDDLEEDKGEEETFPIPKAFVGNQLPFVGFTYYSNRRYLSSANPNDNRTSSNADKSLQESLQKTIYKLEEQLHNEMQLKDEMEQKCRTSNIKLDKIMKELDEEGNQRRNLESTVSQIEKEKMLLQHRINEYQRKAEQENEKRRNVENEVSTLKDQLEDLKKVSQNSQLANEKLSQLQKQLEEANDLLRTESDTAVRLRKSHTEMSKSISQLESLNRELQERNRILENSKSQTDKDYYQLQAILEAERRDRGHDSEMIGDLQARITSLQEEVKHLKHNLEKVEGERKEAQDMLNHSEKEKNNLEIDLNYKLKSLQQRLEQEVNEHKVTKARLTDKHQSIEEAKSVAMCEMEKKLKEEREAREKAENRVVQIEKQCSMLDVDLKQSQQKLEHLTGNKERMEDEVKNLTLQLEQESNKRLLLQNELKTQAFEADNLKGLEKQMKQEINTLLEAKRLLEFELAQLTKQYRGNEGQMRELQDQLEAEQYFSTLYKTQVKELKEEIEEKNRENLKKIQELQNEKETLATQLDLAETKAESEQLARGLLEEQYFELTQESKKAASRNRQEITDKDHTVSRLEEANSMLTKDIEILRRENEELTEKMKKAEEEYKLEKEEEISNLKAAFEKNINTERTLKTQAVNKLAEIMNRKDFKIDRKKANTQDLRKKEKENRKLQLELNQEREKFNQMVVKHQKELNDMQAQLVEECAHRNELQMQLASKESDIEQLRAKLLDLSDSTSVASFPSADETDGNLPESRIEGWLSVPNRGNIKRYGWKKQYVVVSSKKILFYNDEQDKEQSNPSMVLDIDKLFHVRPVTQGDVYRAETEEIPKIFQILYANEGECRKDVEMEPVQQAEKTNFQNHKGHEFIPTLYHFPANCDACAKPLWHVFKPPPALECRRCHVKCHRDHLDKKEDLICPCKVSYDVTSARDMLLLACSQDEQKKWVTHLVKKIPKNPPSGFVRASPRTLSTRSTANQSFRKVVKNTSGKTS

LIMK1 = target: T3, LIMK1 (Homo sapiens, UniProt P53667); experiment: KINOMEscan; assay type: binding; settings: 1 μM
T3 construct: purchased Eurofins DiscoverX Corporation

[4] = target: RSK2(Kin.Dom.2-C-terminal) (Homo sapiens, UniProt P51812); experiment: KINOMEscan; assay type: binding; settings: 1 μM
RSK2(Kin.Dom.2-C-terminal), sequence (P51812 422-679 limits assumed): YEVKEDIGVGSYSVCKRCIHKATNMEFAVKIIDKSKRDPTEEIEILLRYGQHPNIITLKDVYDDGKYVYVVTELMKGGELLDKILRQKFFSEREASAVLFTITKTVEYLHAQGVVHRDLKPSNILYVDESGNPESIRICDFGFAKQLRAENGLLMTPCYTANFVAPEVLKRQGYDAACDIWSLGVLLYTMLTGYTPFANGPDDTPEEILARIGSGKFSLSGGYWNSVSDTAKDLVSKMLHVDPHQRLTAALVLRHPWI

ACVRL1 = ACVRL1 (Homo sapiens, UniProt P37023); experiment: KINOMEscan; assay type: binding; settings: 1 μM
468 kinases = experiment: KINOMEscan selectivity score; assay type: binding; settings: 1 μM
HASPIN = target: T4, HASPIN (Homo sapiens, UniProt Q8TF76); experiment: KINOMEscan; assay type: binding; settings: 1 μM
T4 construct: purchased Eurofins DiscoverX Corporation
T4 sequence (Q8TF76 whole entry): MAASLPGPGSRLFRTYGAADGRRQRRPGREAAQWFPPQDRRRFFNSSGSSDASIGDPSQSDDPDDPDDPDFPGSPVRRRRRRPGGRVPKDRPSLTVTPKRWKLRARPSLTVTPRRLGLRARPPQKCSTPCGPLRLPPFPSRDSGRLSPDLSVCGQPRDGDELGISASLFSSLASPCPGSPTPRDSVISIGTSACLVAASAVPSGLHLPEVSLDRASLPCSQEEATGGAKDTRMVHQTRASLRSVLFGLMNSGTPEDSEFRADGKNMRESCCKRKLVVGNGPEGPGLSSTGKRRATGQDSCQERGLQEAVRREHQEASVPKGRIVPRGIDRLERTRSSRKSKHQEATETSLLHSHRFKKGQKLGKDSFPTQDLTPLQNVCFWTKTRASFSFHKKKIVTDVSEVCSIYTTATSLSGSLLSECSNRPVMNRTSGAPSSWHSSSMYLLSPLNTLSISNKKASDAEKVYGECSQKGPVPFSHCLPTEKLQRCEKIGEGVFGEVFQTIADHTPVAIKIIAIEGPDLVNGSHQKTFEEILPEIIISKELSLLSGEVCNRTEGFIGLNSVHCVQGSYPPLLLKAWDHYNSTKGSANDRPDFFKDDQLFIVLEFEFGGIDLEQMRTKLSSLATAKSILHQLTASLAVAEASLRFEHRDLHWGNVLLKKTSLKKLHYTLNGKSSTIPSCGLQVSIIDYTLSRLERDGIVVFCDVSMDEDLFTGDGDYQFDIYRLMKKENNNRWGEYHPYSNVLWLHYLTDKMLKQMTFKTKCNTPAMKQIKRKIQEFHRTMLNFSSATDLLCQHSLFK

PAK3 = PAK3 (Homo sapiens, UniProt O75914); experiment: KINOMEscan; assay type: binding; settings: 1 μM
[5] = target: T5, JAK2(JH1domain-catalytic) (Homo sapiens, UniProt O60674); experiment: KINOMEscan; assay type: binding; settings: 1 μM
T5 construct: JAK2(JH1domain-catalytic); purchased Eurofins DiscoverX (KINOMEscan)

ERK8 = ERK8 (Homo sapiens, UniProt Q8TD08); experiment: KINOMEscan; assay type: binding; settings: 1 μM
TLK1 = target: T6, TLK1 (Homo sapiens, UniProt Q9UKI8); experiment: KINOMEscan; assay type: binding; settings: 1 μM
T6 construct: purchased Eurofins DiscoverX Corporation

ULK1 = ULK1 (Homo sapiens, UniProt O75385); experiment: KINOMEscan; assay type: binding; settings: 1 μM
EGFR(L747-S752del+P753S) = EGFR(L747-S752del+P753S) (Homo sapiens, UniProt P00533, DEL747-752/P753S); experiment: KINOMEscan; assay type: binding; settings: 1 μM
MELK = target: T7, MELK (Homo sapiens, UniProt Q14680); experiment: KINOMEscan; assay type: binding; settings: 1 μM
T7 construct: purchased Eurofins DiscoverX Corporation

In the case of C=CC(=O)Nc1ccc(OC)c(Nc2cc(-c3[nH]c(CC)nc3-c3cccc(NC(=O)c4cccc5c4NC(=O)c4ccccc4N5)c3)ccn2)c1 [Compound 4], the “suppression of EGFR pY1068 phosphorylation” value (“suppression” below) [1] is reported as “analogous suppression of EGFR pY1068 phosphorylation”, the “suppression” value [2] is reported as “analogous suppression of EGFR pY1068 phosphorylation” and the “suppression” value [3] is reported as “analogous suppression of EGFR pY1068 phosphorylation”. For the same compound, the POC (MARK2) was 85% of control, the POC (SRPK1) was 100% of control and the POC (CLK1) was 100% of control. The POC (EPHA7) was 100% of control, the POC (CDK5) was 100% of control and the POC (AKT3) was 100% of control. The POC (RIPK5) was 79% of control, the POC (BLK) was 1.7% of control and the POC (PRKD1) was 42% of control. For the same compound, the POC (AMPK-alpha1) was 81% of control, the POC (LZK) was 90% of control and the POC (ROCK1) was 100% of control. For the same compound, the POC (LIMK1) was 79% of control, the POC [4] was 100% of control and the POC (ACVRL1) was 75% of control. For the same compound, the “selectivity score S(35)” value (468 kinases) was 0.084, the POC (HASPIN) was 100% of control and the POC (PAK3) was 70% of control. The POC [5] was 86% of control, the POC (ERK8) was 100% of control and the POC (TLK1) was 87% of control. For the same compound, the POC (ULK1) was 100% of control, the POC (EGFR(L747-S752del+P753S)) was 16% of control and the POC (MELK) was 100% of control.

Source: PMC10879502, “Linking ATP and allosteric sites to achieve superadditive binding with bivalent EGFR kinase inhibitors” (Communications Chemistry, 2024)
